What was measured:
[1] = for surface tension liquid-gas: Ring tensiometer; for mass density: 101.33 kPa, Liquid
[2] = xn = mol fraction of the nth substance listed; details: Ring tensiometer

OCCO [1,2-ethanediol]
[1]
Details	mass density [kg/m3]	surface tension liquid-gas [mN/m]
293.15 K	1113.34	48.42
298.15 K	–	48.03
303.15 K	1106.36	47.57
308.15 K	–	47.2
313.15 K	1098.39	46.78
318.15 K	–	46.42
323.15 K	1091.05	46.02

OCCO [1,2-ethanediol] + OCc1ccccc1
[2], x2 = 0
Details	surface tension liquid-gas [mN/m]
293.15 K	48.42
298.15 K	48.03
303.15 K	47.57
308.15 K	47.2
313.15 K	46.78
318.15 K	46.42
323.15 K	46.02

OCc1ccccc1 [benzenemethanol]
[1]
Details	mass density [kg/m3]	surface tension liquid-gas [mN/m]
293.15 K	1045.2	39.05
298.15 K	1041.4	38.58
303.15 K	1037.5	38.12
308.15 K	1033.6	37.63
313.15 K	1029.8	37.16
318.15 K	1025.8	36.63
323.15 K	1021.9	36.18

OCc1ccccc1 [benzenemethanol] + OCCO
surface tension liquid-gas [mN/m], [2]
Details	293.15 K	298.15 K	303.15 K	308.15 K	313.15 K	318.15 K	323.15 K
x1 = 0.0319	47.78	47.35	46.92	46.54	46.14	45.71	45.26
x1 = 0.0535	47.45	47.01	46.53	46.07	45.66	45.24	44.79
x1 = 0.0727	47.13	46.67	46.15	45.72	45.26	44.86	44.32
x1 = 0.0854	46.69	46.19	45.76	45.31	44.85	44.41	43.91
x1 = 0.1118	45.87	45.43	44.9	44.46	44.04	43.53	43.06
x1 = 0.206	44.07	43.61	43.08	42.6	42.12	41.67	41.16
x1 = 0.2633	42.87	42.42	41.87	41.39	40.84	40.4	39.9
x1 = 0.3883	41.53	41.07	40.61	40.14	39.7	39.24	38.76
x1 = 0.5596	40.58	40.18	39.68	39.24	38.77	38.27	37.79
x1 = 0.7394	39.44	38.95	38.45	37.94	37.51	36.99	36.53
x1 = 0.9101	39.28	38.79	38.3	37.79	37.35	36.84	36.38
x1 = 1	39.05	38.58	38.12	37.63	37.16	36.63	36.18

Reference: the NIST ThermoML archive (doi:10.1021/je049591p)
